Experimental data reported in patent publication US6517808B1, “Methods for boron delivery to mammalian tissue” (The Regents of the University of California, priority 1993, dated 2003).
Values belong to the substance of their own block, whether it stands above or below them.

Experiments:
EMT6 tumors = test: murine biodistribution study (boron concentration in tissues by ICP-AES); assay type: in vivo, BALB/c mice
Description: The concentration of boron can be determined by inductively coupled plasma atomic emission spectroscopy (ICP-AES).
All murine biodistribution studies utilized female BALB/c mice (16-20 g), with EMT6 tumors implanted in the right flank 7-10 days prior to the experiment. […] Injections of liposome emulsions (200 μl) were made in the tail vein. Prior to sacrifice, each mouse was anesthetized with halothane and bled into heparinized syringes via cardiac puncture. The blood was then placed into tared cryogenic tubes. While under anesthesia, the mice were euthanized via cervical dislocation. The tumor, liver, and spleen were dissected and also placed in tared cryogenic tubes. Blood and tissues were stored frozen until analyzed.
Biodistributions are plotted as boron concentration in micrograms of boron per gram of tissue on the Y axis and time in hours on the X axis. In general, four tissues are analyzed: tumor and blood because of their therapeutic interest, and liver and spleen because these tissues are known to competitively bind liposomes in vivo.

[1] = chemical stability of borane anions towards water / moisture; assay type: physicochemical
Description: The cleanest reaction is observed employing [Ph3PMe][B10H10] in CH2Cl2, but the reaction can be used with several salts of [B10H10]^2− including preferably cesium. tetramethylammonium and triethylammoniuim and with other solvents such as acetonitrile and tetrahydrofuran. […] The substituted boron is indicated by a high field resonance at −43.8 ppm (relative to BF3. Et2O) which is a singlet in the proton coupled spectrum. [Ph3PMe][2-B10H9CO] may be isolated a a light tan solid in 85% yield, or the reaction mixture may be used directly in further reactions. […] [Ph3PMe]2[2-B10H9CO2H] has been confirmed by crystallographic analysis.
A very useful transformation of [2-B10H9CO]^− occurs from its reaction with azide ion in acetonitrile. The carbonyl undergoes a Curtius-type rearrangement to form the isocyanate [2-B10H9NCO]^2−, indicated by an infrared absorption at 2304 cm^−1. […] The [2-B10H9CO]^− ion therefore offers a high-yield route to the production of many boron-rich species for boron neutron capture therapy. Detailed protocols of preparing certain of these species is as follows: […]

Substance: Na2B10H10 [reference compound]
- tumor uptake begins at (initial tumor boron concentration) (EMT6 tumors; FIG. 4, BALB/c mice bearing EMT6 tumors, tail vein injection): 10 µg/g

Substance: Na3B20H17NH3 [free Na3B20H17NH3]
- initial distribution (accumulation) in the tumor (EMT6 tumors; FIG. 10, free, not liposome-encapsulated, injected in buffer): about 8 ppm

- sensitivity to moisture ([1]; in the solid state or in solution): relatively insensitive to moisture
Substance: [2-B10H9CO]^−

- stability in acidic media ([1]; acidic media): rapidly hydrolyzed
- stability in neutral aqueous solution ([1]; neutral aqueous solution): stable
Substance: [2-B10H9NCO]^2−
